Assay [1] has as its system human iPS cells (1231A3 strain). Kind of assay: Immunostaining for pluripotent stem cell marker Oct3/4 after preconditioning. It counts as cell-based. Particulars: 1 day; SB431542 5 μM, LDN193189 100 nM, SAG 300 nM, or SB431542 5 μM and LDN193189 100 nM; positive = intensity not less than 2 times background. The protocol:
Human iPS cells (1231A3 strain) were subjected to feeder-free culturing according to the method described in Example 1 in StemFit medium until one day before subconfluence. The human iPS cells one day before subconfluence were subjected to feeder-free culturing in the presence of SB431542 (TGFβR inhibitor, 5 μM), LDN193189 (BMPR inhibitor, 100 nM), SAG (Shh activating substance, 300 nM), or TGFβR inhibitor and BMPR inhibitor (SB431542 5 μM, and LDN193189 100 nM) (step 1: preconditioning treatment), or in the absence thereof (step 1: without preconditioning) for 1 day. The obtained cells were each fixed with 4% para-formaldehyde, and immunostaining for Oct3/4, which is one of the pluripotent stem cell markers, was performed and the immunostained cells were subjected to bright field observation and fluorescence image observation under an inverted fluorescence microscope (BIOREVO, KEYENCE).

For assay [2] the test system is unchanged. Kind of assay: Immunostaining of aggregate sections for retinal tissue markers Chx10, Rx. It counts as cell-based. The protocol:
Here, as step 3, culturing was performed under the following condition 1 and condition 2: Under condition 1(+BMP), on day 6 after the start of suspension culturing, the medium was changed to a medium free of Y27632 and containing human recombinant BMP4 (manufactured by R&D) such that the final concentration of exogenous human recombinant BMP4 was 1.5 nM (55 ng/ml) (FIG. 6B, D). Under condition 2(−BMP), on day 6 after the start of suspension culturing, a half amount of the medium was changed to a medium free of Y27632 and free of a BMP signal transduction pathway activating substance, without adding exogenous human recombinant BMP4 (FIG. 6A, C).
The thus-prepared cell aggregates on day 23 after the start of suspension culturing, which were produced from the above iPS cells that underwent a preconditioning treatment in step 1 as a starting material were fixed with 4% para-formaldehyde to prepare frozen sections. These frozen sections were immunostained for Chx10 (anti-Chx10 antibody, Exalpha, sheep), which is one of the retinal tissue markers, or Rx (anti-Rx antibody, Takara, guinea pig), which is one of the retinal tissue markers. These immunostained sections were observed under an inverted fluorescence microscope.
Cell aggregate were prepared according to the method described in Example 8 under conditions in which human iPS cells using StemFit medium as a feeder-free medium were used as a starting material, TGFβR inhibiting substance (SB431542) or BMPR inhibiting substance (LDN193189) was used in step 1, Shh signal transduction pathway activating substance was used in step 2, and BMP signal transduction pathway activating substance was added or not added in step 3. Neural tissues were formed in all the aggregates formed under all these conditions on day 23 after the start of suspension culturing. The above cell aggregates were fixed with 4% para-formaldehyde to prepare frozen sections. These frozen sections were immunostained for Chx10 (anti-Chx10 antibody, Exalpha, sheep), which is one of the retinal tissue markers, or Rx (anti-Rx antibody, Takara, guinea pig), which is one of the retinal tissue markers. These immunostained sections were observed under an fluorescence microscope. […] Furthermore, it was found from the analysis of serial sections that, in a neural tissue having a high (not less than 95%) proportion of Chx10-positive cells, Rx is also strongly positive (FIG. 9B, D, F, H).
Cell aggregates were prepared according to the method described in Example 10 by using, as a starting material, human iPS cells using Essential 8 medium as a feeder-free culturing, under conditions that TGFβR inhibiting substance (SB431542) are used in step 1, a Shh signal transduction pathway activating substance are used in step 2, and a BMP signal transduction pathway activating substance are added or are not added in step 3. The cell aggregates on day 18 after the start of suspension culturing were each fixed with 4% para-formaldehyde to prepare frozen section. These frozen sections were immunostained for Chx10 (anti-Chx10 antibody, Exalpha, sheep), which is one of the retinal tissue markers, or Rx (anti-Rx antibody, Takara, guinea pig), which is one of the retinal tissue markers, and observed under a fluorescence microscope. […] Furthermore, it was found from the analysis of serial sections that, in a neural tissue having a high (not less than 95%) proportion of Chx10-positive cells, Rx is also strongly positive. […]
A Cell aggregate was formed on day 18 after the start of suspension culturing under every conditions, and a neural tissue was formed (FIG. 14, upper panel). The above cell aggregates on day 18 after the start of suspension culturing were each fixed with 4% para-formaldehyde to prepare frozen section. […]

Setting [3] is: LDN193189 100 nM in step 1, no SAG in step 2, BMP4 1.5 nM on day 6 in step 3, day 23.
The mark [4] stands for this setting: LDN193189 100 nM in step 1, no SAG in step 2, without BMP4 in step 3, day 23.
[5] abbreviates: SB431542 or LDN193189 in step 1, SAG 300 nM in step 2, BMP4 1.5 nM in step 3, StemFit, day 23.
[6] abbreviates: Essential 8 medium, SB431542 in step 1, SAG in step 2, addition of BMP4 in step 3, day 18.
[7] abbreviates: Essential 8 medium, SB431542 in step 1, SAG in step 2, no addition of BMP4 in step 3, day 18.

For `c1ccc2c(-c3cnn4cc(-c5ccc(N6CCNCC6)cc5)cnc34)ccnc2c1` [LDN193189, 4-[6-(4-piperazin-1-ylphenyl)pyrazolo[1,5-a]pyrimidin-3-yl]quinoline], the “Oct3/4 immunostaining of preconditioned cells” value (shortened to “Oct3/4 immunostaining”) in assay [1] is listed as “Oct3/4-positive”. In assay [2] (setting [3]), the “proportion of Chx10-positive cells in the total cells” value is given as “about 60%” and the “proportion of Rx-positive cells in the total cells” value (shortened to “proportion of Rx-positive cells”) is reported as “about 60%”. In assay [2] (setting [4]), the “Rx-strong positive (corresponding to retina)” value is recorded as “less than 3%”, the “Rx-weak positive (corresponding to neural tissue other than retina)” value was “less than 7%”, the “proportion of Chx10-positive cells” value was “less than 3%” and the “proportion of Rx-positive cells” value is given as “less than 10%”. In addition, in assay [2] (setting [5]), the “proportion of Chx10-positive cells in the total cells” value is reported as not below 40% and the “proportion of Rx-positive cells” value is not below 50%.
`CNC1CCC(N(Cc2cccc(-c3ccncc3)c2)C(=O)c2sc3ccccc3c2Cl)CC1` (centres unmarked) [SAG]: the “Oct3/4 immunostaining” value in assay [1] is listed as “Oct3/4-positive”. The “proportion of Chx10-positive cells in the total cells” value in assay [2] (A83-01 0.5 μM and SAG 300 nM in step 1, substance added in step 2 (SAG 30 nM, Purmorphamine 0.2 μM or human recombinant Shh 300 ng/ml), BMP4 1.5 nM on day 3, day 20) is reported as “about 90%”.
Consider `NC(=O)c1ccc(-c2nc(-c3ccc4c(c3)OCO4)c(-c3ccccn3)[nH]2)cc1` [SB431542, 4-(5-benzol[1,3]dioxol-5-yl-4-pyridin-2-yl-1H-imidazol-2-yl)-benzamide], for which the “Oct3/4 immunostaining” value in assay [1] was “Oct3/4-positive”. In assay [2] (setting [6]), the “proportion of Chx10-positive cells in the total cells” value was not below 20% and the “proportion of Rx-strong positive cells in the total cells” value is listed as not below 30%. In addition, in assay [2] (setting [7]), the “Rx-strong positive (corresponding to retina)” value was “less than 3%”, the “Rx-weak positive (corresponding to neural tissue other than retina)” value is reported as “less than 7%”, the “proportion of Chx10-positive cells” value is recorded as “less than 3%” and the “proportion of Rx-positive cells” value is “less than 10%”. Further, in assay [2] (setting [5]), the “proportion of Chx10-positive cells in the total cells” value is not below 70% and the “proportion of Rx-positive cells” value is given as not below 80%.
